According to patent publication US7935503B2, “Methods for producing and using polymyxins” (University of Georgia Research Foundation, Inc., priority 2007, dated 2011):

Legend:
Format in all cases: cell-based
[1] = system: Salmonella typhimurium ATCC 29629; experiment: Minimum inhibitory concentration (NCCLS dilution method), Salmonella typhimurium [sic]; details: Salmonella typhimurium ATCC 29629 (second line, r16), Gram negative; triplicate, identical values
Experimental: (§1) Bacterial Strains and Culture Conditions. Paenibacillus amylolyticus C27, C25, C26, C28, and C30 were isolated from the hindgut extract of a Tipula abdominalis larva as described in Cook et al. (2007, Appl. Environ. Microbiol., 73:5683-5686), and grown aerobically at 28° C. on tryptic soy agar (TSA) and in tryptic soy both (TSB) or Davis minimal media broth (MM) (Atlas, 1993, Handbook of Microbiological Media, Boca Raton, Fla., CRC Press, Inc.). Escherichia coli ATCC 11303 was grown aerobically at 37° C. on Luria-Bertani agar or in broth. Enterococcus faecalis ATCC 19433, Pseudomonas aeruginosa ATCC 27853, Salmonella typhimurium ATCC 29629, Shigella fexneri ATCC 9199, Bacillus subtilis ATCC 6633, Staphylococcus aureus ATCC 6538, and Streptococcus pyogenes ATCC 19615 were grown aerobically at 37° C. on TSA.
Minimum inhibitory concentrations. Both P. amylolyticus C27 peaks with antibacterial activity from HPLC purification of 500 mL minimal media culture were combined. […]

[2] = system: Streptococcus pyogenes ATCC 19615; experiment: Minimum inhibitory concentration (NCCLS dilution method); details: Streptococcus pyogenes ATCC 19615, Gram positive; triplicate, identical values
Experimental: as §1
(§2) Minimum inhibitory concentrations. Both P. amylolyticus C27 peaks with antibacterial activity from HPLC purification of 500 mL minimal media culture were combined. For analysis of polymyxin B (Sigma-Aldrich, St. Louis, Mo.), polymyxin E (Sigma-Aldrich, St. Louis, Mo.), and the P. amylolyticus C27 antibacterials, MIC determinations were performed according to the National Committee for Clinical Laboratory Standards (NCCLS) (Table 2) (NCCLS, 2003, Methods for dilution antimicrobial susceptibility tests for bacteria that grow aerobically; approved standard—sixth edition. NCCLS document M7-A6. Wayne, Pa., National Committee for Clinical Laboratory Standards).

[3] = system: Escherichia coli ATCC 11303; experiment: as above; details: Escherichia coli ATCC 11303, Gram negative; triplicate, identical values
Experimental: as §1, §2

[4] = system: Staphylococcus aureus ATCC 6538; experiment: as above; details: Staphylococcus aureus ATCC 6538, Gram positive; triplicate, identical values
Experimental: as §1, §2

[5] = system: Pseudomonas aeruginosa ATCC 27853; experiment: as above; details: Pseudomonas aeruginosa ATCC 27853, Gram negative; triplicate, identical values
Experimental: as §1, §2

[6] = system: Salmonella typhimurium ATCC 29629; experiment: as above; details: Salmonella typhimurium ATCC 29629 (first line, r15), Gram negative; triplicate, identical values
Experimental: as §1, §2

[7] = system: Enterococcus faecalis ATCC 19433; experiment: as above; details: Enterococcus faecalis ATCC 19433, Gram positive; triplicate, identical values
Experimental: as §1, §2

Substance	Minimum inhibitory concentration [1]	Minimum inhibitory concentration [2]	Minimum inhibitory concentration [3]	Minimum inhibitory concentration [4]	Minimum inhibitory concentration [5]	Minimum inhibitory concentration [6]	Minimum inhibitory concentration [7]
polymyxin B	4 µg/mL	32 µg/mL	2 µg/mL	32 µg/mL	4 µg/mL	4 µg/mL	>128 µg/mL
polymyxin E	2 µg/mL	>128 µg/mL	2 µg/mL	128 µg/mL	4 µg/mL	1 µg/mL	>128 µg/mL
